Data on three compounds can be found in patent publication US9918989B2, “Combination therapies for malaria” (The Regents of the University of California, priority 2013, dated 2018).

Data set [1] has as its system Plasmodium falciparum. Briefly: P. falciparum growth in vitro, flow cytometry. It counts as cell-based. Conditions: 1 μM or 10 μM (up to 10 μM), 48 h, relative to vehicle control. (In flow cytometry, cells or beads pass a laser one at a time.)
For another data set, the system named is anti-parasite genes. Briefly: Midgut expression of anti-parasite/immune genes, quantitative PCR. Conditions: BIRB 796 with killed lysate of P. falciparum; 6 h post-feeding. It counts as in vivo, Anopheles stephensi.
Data set [2] relates to Anopheles stephensi p38 MAPK. Briefly: MK2 phosphorylation in LPS-stimulated ASE cells, western blot. Format: cell-based. The settings on record: ASE cells pre-incubated with 10 μM inhibitor, 2 h later 1 μg/ml LPS. Background: A western blot detects proteins with antibodies after separation by electrophoresis.
For data set [3], the system named is Plasmodium falciparum. Briefly: P. falciparum development (oocysts) in A. stephensi after inhibitor-supplemented bloodmeal. It counts as in vivo, Anopheles stephensi. Conditions: 10 μM in bloodmeal. As to the method:
Midguts were dissected and oocysts were counted at 10 days following infection. Dots in FIG. 3A and FIG. 3C represent oocyst numbers in one midgut, while percentage positive midguts or percentage of midguts with at least one oocyst are represented as means in FIG. 3B and FIG. 3D. Mean oocysts per midgut (lines, numbers on graph) were analyzed by ANOVA (alpha=0.05) for overall significance and by Student-Neuman-Keuls for pairwise comparisons using Graphpad Prism version 4.0 (San Diego, Calif.). Prevalences of mosquito infection (indicated on graph) were analyzed by chi-square (alpha=0.05).

The subject of a further data set is A. freeborni. Briefly: Mosquito lifespan with inhibitor in water or bloodmeal. It counts as in vivo, Anopheles freeborni. The settings on record: 1 μM or 10 μM daily in water or once weekly via bloodmeal.
Another data set deals with A. stephensi. The data set is described as above. Format: in vivo, Anopheles stephensi. Conditions: 1 μM or 10 μM daily in water or once weekly via bloodmeal.

Molecules are shown by their SMILES. “Also recorded” adds a separate entry of the source.

As for `Cc1ccc(-n2nc(C(C)(C)C)cc2NC(=O)Nc2ccc(OCCN3CCOCC3)c3ccccc23)cc1` [BIRB 796, 1-[5-tert-butyl-2-(4-methylphenyl)pyrazol-3-yl]-3-[4-(2-morpholin-4-ylethoxy)naphthalen-1-yl]urea], the “P. falciparum growth in vitro (parasitemia)” value in the data set on Plasmodium falciparum [1] is reported as “Neither inhibitor significantly altered parasite growth”. The “midgut immune gene expression levels” value in the data set with anti-parasite genes is given as “significantly different from controls”.

On to `C[S+]([O-])c1ccc(-c2nc(-c3ccc(F)cc3)c(-c3ccncc3)[nH]2)cc1` (centres unmarked) [SB203580, 4-[4-(4-fluorophenyl)-2-(4-methylsulfinylphenyl)-1H-imidazol-5-yl]pyridine], for which the “p-MK2 levels (phosphorylation of MK2)” value in data set [2] is recorded as “undetectable”. For the same compound, the “infection prevalence in A. stephensi” value in the data set with Plasmodium falciparum [3] (midguts with at least one oocyst at 10 days) is “significantly reduced”. In the data set with Plasmodium falciparum [3] (oocysts counted at 10 days), the P. falciparum oocysts/midgut result is on record as “significantly reduced”. In addition, the “P. falciparum growth in vitro (parasitemia)” value with Plasmodium falciparum [1] is listed as “Neither inhibitor significantly altered parasite growth; also recorded: no such effects”.

Turning to `Oc1c2ccccc2c2c3c(cccc13)N=N2` [SP600125, 1;9-Pyrazoloanthrone], the impact on lifespan result with A. freeborni and in the data set with A. stephensi was “no negative impact” in each case.
